# Tested on: HIV-1 infection of TZM-bl cells
# Test: HIV-1 infectivity enhancement assay, β-galactosidase luminescence
# Assay type: cell-based
# Settings: input.xlsx of the Pattern-Analysis script; infectivity relative to EF-C (peptide 59 = 1.00)
row,Substance,infectivity
1,CEFEFQF [compound 90],0.00521
2,CEFEFQFNMWQ [compound 131],0.14
3,CEIEIQI [compound 2],0.0279
4,CEIEIQINM [compound 134],0.0651
5,CEIEIQINMWQ [compound 133],0.22
6,CETMYDKILKNLSRSR [compound 57],0.02
7,CHLHLQL [compound 56],0.10
8,CKAKAQA [compound 137],0.03
9,CKAKAQANM [compound 11],0.03
10,CKAKAQANMWQ [compound 10],0.0437
11,CKFC [compound 50],0.011
12,CKFKFQF [compound 6],1.23
13,CKFKFQFNM [compound 5],1.24
14,CKFKFQFNMW [compound 91],0.96
15,CKFKFQFNMWQ [compound 4],1.16
16,CKFKFQFW [compound 148],0.88
17,CKFKQFF [compound 17],0.00675
18,CKFKQFFNM [compound 16],0.41
19,CKFKQFFNMWQ [compound 15],0.61
20,CKFQC [compound 48],0.0227
21,CKIKIQI [compound 99],1.02

row,Substance,infectivity
1,CKIKIQIII [compound 1],0.98
2,CKIKIQINM [compound 98],1.59
3,CKIKIQINMW [compound 153],1.29
4,CKIKIQINMWQ [compound 96],0.70
5,CKIKIQIRGD [compound 109],0.33
6,CKIKQII [compound 100],0.04
7,CKIKQIINM [compound 3],0.50
8,CKIKQIINMWQ [compound 101],1.24
9,CKIKQIIRGD [compound 110],0.05
10,CKIW [compound 152],0.05
11,CKWKWQW [compound 94],0.25
12,CKYKYQY [compound 92],0.04
13,CQFQFQF [compound 112],0.35
14,CRFRFQF [compound 28],0.34
15,CRFRVPF [compound 55],0.02
16,CSISIQI [compound 132],0.0559
17,CSISIQINM [compound 135],0.20
18,EFEFQF [compound 89],0.00327
19,EIEIEIEI [compound 82],0.0178
20,EIEIQINM [compound 155],0.0363
21,EIEIQINMWQ [compound 162],0.13

row,Substance,infectivity
1,EIKIQINM [compound 149],0.10
2,FDPFDPFDP [compound 40],0.0234
3,FKFDKFKFDK [compound 42],0.0464
4,HGDKCHGDKC [compound 35],0.01
5,HGEHGE [compound 53],0.00641
6,HGEHGEHGE [compound 54],0.019
7,HHHHEIEIEIEI [compound 87],0.03
8,HHHHKAKAKAKAWWWW [compound 151],0.09
9,HHHHKAKAKAKAYYYY [compound 124],0.0131
10,HHHHKIKIKIKIWWWW [compound 140],0.38
11,HHHHKIKIKIKIYYYY [compound 144],0.68
12,HHHHKIKIQINMYYYY [compound 138],1.11
13,HIHIQIC [compound 29],0.27
14,HLHLPLL [compound 31],0.01
15,HRRHFRHKITKKK [compound 45],0.0136
16,IKVAVKIKIQINM [compound 150],0.50
17,ILKNLSRSRKIKIQIC [compound 128],0.34
18,ILKNLSRSRKIKIQINMWQ [compound 154],0.32
19,KAKAKAQA [compound 116],0.00871

# — PMC10447463, “Data-mining unveils structure–property–activity correlation of viral infectivity enhancing self-assembling peptides” (Nature Communications, 2023)
